Test results published in publication PMC6880192, “Structure–Effect Relationships of Novel Semi-Synthetic Cannabinoid Derivatives” (Frontiers in Pharmacology, 2019).

These compounds were tested against T1, CB2-receptor (Homo sapiens, UniProt P34972) (assay: Competition binding against [3H]-CP55940, CB2 membranes). Settings: ratio of Ki values.
T1 construct: expressed in transfected cells; host or cells: CHO cells, stably transfected with CB2 cDNA (from IMIBIC) and transiently with CRE-luc
T1 sequence (P34972 whole entry): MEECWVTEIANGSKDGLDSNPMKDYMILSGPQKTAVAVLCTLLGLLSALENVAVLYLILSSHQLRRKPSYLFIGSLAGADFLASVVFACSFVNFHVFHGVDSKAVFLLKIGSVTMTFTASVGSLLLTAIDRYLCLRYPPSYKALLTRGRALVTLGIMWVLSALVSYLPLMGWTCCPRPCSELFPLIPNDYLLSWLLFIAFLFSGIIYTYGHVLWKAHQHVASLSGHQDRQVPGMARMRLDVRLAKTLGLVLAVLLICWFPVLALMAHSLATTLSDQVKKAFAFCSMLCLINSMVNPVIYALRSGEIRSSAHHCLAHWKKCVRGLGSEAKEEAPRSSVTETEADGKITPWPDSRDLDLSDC

SMILES	Selectivity CB2/CB1
C=C(C)[C@@H]1CCC(C)=C[C@H]1c1c(O)cc(CCCCC)c(C(=O)OCCO)c1O [2-HEC (1), 2-hydroxyethyl cannabidiolate]	10.5

What follows are compounds tested against T2, CB1-receptor (Homo sapiens, UniProt P21554) (assay: cAMP-dependent luciferase assay in CHO-CB1-CRE-luc cells). Settings: CHO-CB1-CRE-luc, summary classification.
T2 construct: expressed in transfected cells; host or cells: CHO cells, stably transfected with CB1 cDNA (from IMIBIC) and transiently with CRE-luc
Type: cell-based
Procedure: (§1) Briefly, CHO cells were stably transfected with CB1- and CB2-receptor complementary DNAs (cDNAs) (kindly provided by IMIBIC). Around 10^5 transfected cells per milliliter were seeded in 24-well plates and transiently transfected with the plasmid CRE-luc using Roti-Fect (Carl Roth, Karlsruhe) following the manufacturer’s instructions. The cells were harvested after 24 h. Two transfected cell types resulted: CHO-CB1-CRE-luc and CHO-CB2-CRE-luc.
(§2) To test for agonistic activity at the CB1-receptor, the CHO-CB1-CRE-luc cells were stimulated for 6 h with increasing concentrations of the test compounds ([Bouaboula et al. 1997]). Forskolin (FSK), a strong CB-receptor-independent activator of adenylyl-cyclase was used at 10 µmol/L as a positive control. To investigate the antagonistic activity, the CHO-CB1-CRE-luc cells were pre-incubated for 15 min with the test compounds before stimulation for 6 h with 1 µmol/L WIN ([Zheng et al. 2013]). To investigate CB2-receptor agonistic activity, CHO-CB2-CRE-luc cells were pre-incubated for 15 min with increasing concentrations of the test substances and then for 6 h with 10 µmol/L FSK. WIN, a non-specific agonist at CB2-receptors, was used as a positive control. To confirm CB2-receptor agonistic activities of the test compounds, CHO-CB2-CRE-luc cells were pre-incubated with the specific CB2-receptor antagonist AM630 (1 µmol/L, 6-iodopravadoline; Cayman, distributed by Biozol, Hamburg) ([Ross et al. 1999]; [Zheng et al. 2013]) and then treated with increasing concentrations of the test substances.
(§3) After the stimulations and incubations, cells were lysed in a solution of 25 mmol Tris-phosphate (pH = 7.8), 8 mmol MgCl2, 1 mmol dithiothreitol (DTT), 1% Triton X-100, and 7% glycerol. The luciferase activity was measured with a Luciferase Assay Kit (Promega, Madison) according to the manufacturer’s instructions using an AutoLumat LB 9501 (Berthold Technologies, Bad Wildbad).

T2 sequence (P21554 whole entry): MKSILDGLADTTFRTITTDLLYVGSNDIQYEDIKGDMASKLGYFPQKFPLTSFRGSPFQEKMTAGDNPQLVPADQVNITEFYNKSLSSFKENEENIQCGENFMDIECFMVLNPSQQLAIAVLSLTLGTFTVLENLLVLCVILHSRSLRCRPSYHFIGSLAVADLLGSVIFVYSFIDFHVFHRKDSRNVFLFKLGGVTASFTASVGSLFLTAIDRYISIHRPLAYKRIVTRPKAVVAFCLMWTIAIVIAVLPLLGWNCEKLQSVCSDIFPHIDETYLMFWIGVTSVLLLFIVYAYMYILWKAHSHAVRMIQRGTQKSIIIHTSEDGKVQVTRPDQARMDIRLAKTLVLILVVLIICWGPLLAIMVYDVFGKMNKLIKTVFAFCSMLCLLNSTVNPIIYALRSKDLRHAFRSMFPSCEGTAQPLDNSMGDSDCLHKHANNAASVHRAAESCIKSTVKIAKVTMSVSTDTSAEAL

SMILES	Effect on CB1
C=C(C)[C@@H]1CCC(C)=C[C@H]1c1c(O)cc(CCCCC)c(C(=O)OCCO)c1O [2-HEC (1), 2-hydroxyethyl cannabidiolate]	Antagonist
C=C(C)[C@@H]1CCC(C)=C[C@H]1c1c(O)cc(CCCCC)c(C(=O)OCC(O)CCC)c1O (stereo partly drawn) [2-HPC (2), 2-hydroxypentyl cannabidiolate]	Antagonist

What follows are compounds tested against T1, CB2-receptor (assay: cAMP-dependent luciferase assay in CHO-CB2-CRE-luc cells). Settings: 15 min pre-incubation, then 10 µmol/L FSK for 6 h.
Type: cell-based
Procedure: as §1, §2, §3

SMILES	CB2-receptor agonistic activity (fold induction of CRE-luc)
C=C(C)[C@@H]1CCC(C)=C[C@H]1c1c(O)cc(CCCCC)c(C(=O)OCCO)c1O [2-HEC (1), 2-hydroxyethyl cannabidiolate]	dose dependency

Same assay, conditions: CHO-CB2-CRE-luc, summary classification

SMILES	Effect on CB2
C=C(C)[C@@H]1CCC(C)=C[C@H]1c1c(O)cc(CCCCC)c(C(=O)OCCO)c1O [2-HEC (1), 2-hydroxyethyl cannabidiolate]	Agonist
C=C(C)[C@@H]1CCC(C)=C[C@H]1c1c(O)cc(CCCCC)c(C(=O)OCC(O)CCC)c1O (stereo partly drawn) [2-HPC (2), 2-hydroxypentyl cannabidiolate]	Agonist

Same assay, conditions: same dose as 1 µmol/L WIN

SMILES	CB2 agonistic effect compared with positive control WIN
C=C(C)[C@@H]1CCC(C)=C[C@H]1c1c(O)cc(CCCCC)c(C(=O)OCCO)c1O [2-HEC (1), 2-hydroxyethyl cannabidiolate]	as strong as the same dose of the positive control

What follows are compounds tested on NFAT (assay: PMA/IO-induced NFAT-luc activation in Jurkat T-cells). Settings: 0.5–25 µmol/L.
Type: cell-based
Procedure: Jurkat T-cells (10^6 cells per milliliter) were transiently transfected with plasmids that contained an NF-κB-dependent (KBF-luc) or NFAT-dependent (NFAT-luc) promotors fused to the luciferase gene using Lipofectin (Life Technologies, Carlsbad) according to the manufacturer’s instructions ([Yano et al. 1987]; [Durand et al. 1988]). Twenty-four hours after transfection, cells were stimulated for 30 min with increasing doses of the test compounds or WIN as a control (Tocris, Bristol). Then PMA (50 ng/ml)—for NFAT-luc—plus ionomycin (0.5 µg/ml) (Sigma-Aldrich, St. Louis) was added, followed by a 6 h incubation period.
as §3

SMILES	Inhibition of PMA/IO-induced NFAT activation
C=C(C)[C@@H]1CCC(C)=C[C@H]1c1c(O)cc(CCCCC)c(C(=O)OCCO)c1O [2-HEC (1), 2-hydroxyethyl cannabidiolate]	significantly inhibited
C=C(C)[C@@H]1CCC(C)=C[C@H]1c1c(O)cc(CCCCC)c(C(=O)OCC(O)CCC)c1O (stereo partly drawn) [2-HPC (2), 2-hydroxypentyl cannabidiolate]	significantly inhibited

The compounds below were run on primary human monocytes (assay: Anti-inflammatory effect on LPS-treated monocytes (ELISA)). Settings: LPS 10 ng/ml, 24 h.
Type: cell-based
Procedure: Human peripheral blood monocytes were prepared from healthy donors who provided written informed consent at the local blood bank (University Hospital of Freiburg, Germany). Mononuclear cells were isolated by density gradient centrifugation according to standard protocol ([English and Andersen, 1974]) using lymphocyte separation medium, (PAN Biotech, Aidenbach). Cells were resuspended in RPMI-1640 medium (Invitrogen/Thermo Fisher Scientific, Karlsruhe) containing 10% human serum (Hexacell, Berlin). About 5 × 10^5 cells per milliliter were seeded in 24-well plates and incubated at 37°C and 5% CO2. The medium and the non-adherent cells were removed by washing with PBS and fresh RPMI medium, and 1% human serum was added to each well.
To test the anti-inflammatory effect of the test compounds, monocytes were incubated for 30 min with increasing doses of the test compounds. Then lipopolysaccharide (LPS) (10 ng/ml; Escherichia coli, Sigma-Aldrich, St. Louis) was added followed by a 24 h incubation period. The supernatants were removed and the levels of IL-1β, IL-6, IL-8, TNF-α, and prostaglandin E2 (PGE2) determined by enzyme-linked immunosorbent assay (ELISA) performed according to the manufacturer’s instructions (IL-1β from Hiss, Freiburg; IL-6, IL-8, and TNF-α from ImmunoTools, Friesoythe; and PGE2 from Cayman, distributed by Biozol, Hamburg). Stimulation with LPS alone was considered 100%.

SMILES	LPS-induced IL-1β release	LPS-induced IL-6 release	LPS-induced TNF-α release
C=C(C)[C@@H]1CCC(C)=C[C@H]1c1c(O)cc(CCCCC)c(C(=O)OCCO)c1O [2-HEC (1), 2-hydroxyethyl cannabidiolate]	significantly inhibited	significantly inhibited	significantly inhibited
C=C(C)[C@@H]1CCC(C)=C[C@H]1c1c(O)cc(CCCCC)c(C(=O)OCC(O)CCC)c1O (stereo partly drawn) [2-HPC (2), 2-hydroxypentyl cannabidiolate]	–	significantly inhibited	significantly inhibited

Same assay, conditions: dose of 1 µmol/L

SMILES	LPS-stimulated IL-8 synthesis	LPS-stimulated PGE2 synthesis
C=C(C)[C@@H]1CCC(C)=C[C@H]1c1c(O)cc(CCCCC)c(C(=O)OCC(O)CCC)c1O (stereo partly drawn) [2-HPC (2), 2-hydroxypentyl cannabidiolate]	inhibited	inhibited

What follows are compounds tested on RAW264.7 macrophages (assay: MTT cytotoxicity assay). Settings: RAW264.7, concentrations of 5 and 10 µmol/L.
Type: cell-based
Description: Cytotoxicity tests were done on CHO cells, Jurkat T-cells, or RAW264.7 macrophages using the MTT assay (Sigma-Aldrich, St. Louis) and on primary human monocytes with the alamarBlue assay (Thermo Fisher Scientific, Karlsruhe).

SMILES	Effect on cell viability
C=C(C)[C@@H]1CCC(C)=C[C@H]1c1c(O)cc(CCCCC)c(C(=O)OCCO)c1O [2-HEC (1), 2-hydroxyethyl cannabidiolate]	negative effect on cell viability
C=C(C)[C@@H]1CCC(C)=C[C@H]1c1c(O)cc(CCCCC)c(C(=O)OCC(O)CCC)c1O (stereo partly drawn) [2-HPC (2), 2-hydroxypentyl cannabidiolate]	negative effect on cell viability
